Experiments:
[1] = tested on: IRS1 & IRS2; experiment: IRS1 and IRS2 levels in A375 cells (Example 5); assay type: cell-based, human
Protocol: The effect of compound 5 on IRS1 & IRS2 levels and its effect on IGF1-induced Akt/PKB activation and apoptosis in melanoma A375 cells were tested. Cells were seeded in 6-well plates (150,000 A375 cells/well) and 24 hours later medium was replaced by serum-free medium (RPMI supplemented with 100 units/ml penicillin and 100 μg/ml streptomycin), […], and then stimulated for 5 minutes with 50 ng/ml IGF-1, washed twice with PBS and lysed by boiling sample buffer (10% glycerol, 50 mM Tris-HCl, pH 6.8, 3% SDS, and 5% β-mercaptoethanol). Equal amounts of protein per lane were separated by 8% SDS-PAGE and transferred to a nitrocellulose membrane (Sartorius AG). To detect the inhibition of the Akt/PKB activation, phosphorylated proteins were immunoblotted with anti-phospho(T308)Akt (pT308-PKB) and anti-phospho-Tuberin/TSC2 (pTuberin) antibodies. To visualize cell death induced by compound 5, the intact and the cleaved PARP were immunoblotted with anti-PARP antibody. The changes in the levels of IRS1 and IRS2 were detected with specific antibodies. Detection was performed with horseradish peroxidase-conjugated secondary antibody using the ECL system. Blots were then stripped of antibodies, blocked with TBST with 5% low fat milk and re-probed with antibodies detecting both the phosphorylated and the non-phosphorylated Akt/PKB. […]

[2] = tested on: human myeloma U266 cells; experiment: Cell proliferation, U266 (Example 2); assay type: cell-based; conditions: U-266, U266, multiple myeloma, 72 hours, 0.1% DMSO, WST-1
Protocol: (§1) Human ovary cancer A2780 cells lines were seeded at a density of 5000 cells/well, human melanoma A375 cells were plated at a density of 2,500 cells/well, human colon carcinoma HCT15 cells were plated at a density of 3,000 cells/well, human prostate carcinoma PC3 cells were plated at a density of 1,500 cells/well, human breast carcinoma MCF7 cells were plated at a density of 5,000 cells/well, human breast carcinoma MDA MB 468 cells were plated at a density of 6,000 cells/well, human myeloma U266, RPMI8226 and CAG cells were plated at a density of 10,000 cells/well. All cells were plated in 96-well plates in 90 μl growth medium containing 10% FCS, 100 units/ml penicillin and 100 μg/ml streptomycin. Compound 3 was added a day later in […] of 1% DMSO in DDW to obtain final concentrations of 0, 0.1, 0.3, 1, 3, and 10 μM. The final concentration of DMSO (0.1% DMSO) was kept constant in all samples. […] The optical density values were read at 630 nm in ELISA plate reader. Non-adhered cells were exposed to WST-1 reagent for 5 hours following 72 hours treatment with the inhibitors, and optical density values were read at 630 nm in ELISA plate reader. The data was analyzed in Microsoft Excel, using the vehicle control as 100% proliferation. […]

[3] = tested on: human myeloma CAG cells; experiment: Cell proliferation, CAG (Example 2); assay type: cell-based; conditions: multiple myeloma, 72 hours, 0.1% DMSO, WST-1
Protocol: as §1

[4] = tested on: IRS1; experiment: IRS1 levels and serine phosphorylation in MCF7 cells (western blot, time course); assay type: cell-based, human; conditions: 10 μM
Protocol: Tyrosine autophosphorylation of the β-subunit of IGF-1R as well as downstream signaling induced by IGF-1R were assayed in human breast cancer MCF7 cells and in melanoma A375 cells. Cells were seeded in 6-well plates (250,000 A375 cells/well and 300,000 MCF7 cells/well) and 24 hours later medium was replaced by serum-free medium (RPMI supplemented with 100 units/ml penicillin and 100 μg/ml streptomycin). MCF7 cells were exposed for 48 hr to compound 3 at 10 μM concentration, and then stimulated for 5 minutes with 50 ng/ml IGF-1, washed twice with PBS and lysed by boiling sample buffer (10% glycerol, 50 mM Tris-HCl, pH 6.8, 3% SDS, and 5% (3-mercaptoethanol). Equal amounts of protein per lane were separated by 8% SDS-PAGE and transferred to a nitrocellulose membrane (Sartorius AG). Phosphorylated proteins were immunoblotted with anti-phosphoIGF-1R (pIGF-1R), anti-phosphotyrosine-IRS1 (pY-IRS I) and anti-phospho(T308)Akt (pPKB) antibodies. Detection was performed with horseradish peroxidase-conjugated secondary antibody using the ECL system. Blots were then stripped of antibodies, blocked with TBST with 5% low fat milk and re-probed with antibodies detecting both the phosphorylated and the non-phosphorylated corresponding proteins e.g. IGF-1Rβ, IRS1 and PKB. […]

[5] = tested on: human myeloma RPMI8226 cells; experiment: Cell proliferation, RPMI8226 (Example 2); assay type: cell-based; conditions: RPMI-8226, RPMI8226, multiple myeloma, 72 hours, 0.1% DMSO, WST-1
Protocol: as §1

SMILES | IRS1 and IRS2 levels ([1]; 3 μM, 48 hr, FIG. 6B) | levels of IRS1 & IRS2 after washout ([1]; 5 μM for 4 hr, washed, 24 hr after washout, FIG. 6C) | IC50 [2] [µM] | IC50 [3] [µM] | levels of IRS1 ([4]; 48 hr, FIG. 3) | time course of effect on IRS1 phosphorylation and levels ([4]; various time periods, FIG. 5) | IC50 [5] [µM]
O=c1c(O)cc2cnc(/C=C/c3ccc(O)c(O)c3Br)sc-2c1O [Compound 5] | induced a decrease in IRS1 and IRS2 levels | remained low | – | – | – | – | –
O=c1c(O)cc2cnc(/C=C/c3cc(O)c(O)c(Br)c3)sc-2c1O [Compound 3] | – | – | 0.7 | 1.2 | significant decrease | elimination of IRS1 induced by compound 3 is subsequent to IRS1 serine phosphorylation | 2

From US9073880B2, “2-(2-phenylethenyl) 1,3-benzodiazepine derivatives useful for the treatment of cancer” (Yissum Research Development Company of the Hebrew …, priority 2010, dated 2015)
